Reference: patent US20060089395A1, “Nf-kb activation inhibitors” (priority 2002, published 2006)
Like-named read-outs stand apart in the source and are kept apart here.

Tested on: NF-κ B
Test: Inhibitory activity of NF-κ B activation, luciferase reporter assay in HepG2 under TNF-α stimulation
Type: cell-based, human
Experimental: Using a transfection reagent(Effectene; QIAGEN), the human hepatoma cell strain HepG2 was transfected with a plasmid(pNF κ B-Luc Reporter Plasmid; […]) which is integrated with an oligonucleotide having five tandem copies of NF-κ B binding sequences([…]) on a upstream region of firefly luciferase gene(Luc) according to the QIAGEN's protocol, and the cells were incubated for 6 to 24 hours. After the addition of TNF-α (40 ng/ml) in the presence or absence of a test compound, the cells were incubated for 4 hours, and intracellular luciferase activity was measured by using PicaGene LT (TOYO INK MFG Co., Ltd.) and a chemical luminescence measurement apparatus ([…]luor Plus; TECAN). The inhibitory ratio was measured as a ratio relative to the value of a luciferase activity in the absence of the test compound.

[1] = Homo sapiens, 1 μg/mL, HepG2, TNF-α (40 ng/ml), 4 hours, read-out: Inhibitory Ratio of NF-κ B Activation(%) Drug Concentration 1 μg/mL
[2] = Homo sapiens, 10 μg/mL, HepG2, TNF-α (40 ng/ml), 4 hours, read-out: Inhibitory Ratio of NF-κ B Activation(%) Drug Concentration 10 μg/mL
[3] = 1 μg/mL, HepG2, TNF-α (40 ng/ml), 4 hours
[4] = 10 μg/mL, HepG2, TNF-α (40 ng/ml), 4 hours

| Inhibitory Ratio of NF-κ B Activation(%) Drug Concentration 1 μg/mL [3] | Inhibitory Ratio of NF-κ B Activation(%) Drug Concentration 10 μg/mL [4] | SMILES | inhibition at 1 µg/mL [1] | inhibition at 10 µg/mL [2] | also measured |
| --- | --- | --- | --- | --- | --- |
|  |  | O=C(Nc1cc(C(F)(F)F)ccc1C(F)(F)F)c1cc(Cl)ccc1O [Compound No.81, N-[2,5-bis(trifluoromethyl)phenyl]-5-chloro-2-hydroxybenzamide] | 95% | 96.3% | inhibition at 0.1 µg/mL (Homo sapiens, HepG2, 4 h, 0.1 μg/ml, comparison table, reporter assay, read-out: Inhibitory Ratio of NF-κB Activation (%) 0.1 μg/ml): 27%; inhibition at 1 µg/mL (Homo sapiens, HepG2, 4 h, 1 μg/ml, comparison table, reporter assay, read-out: Inhibitory Ratio of NF-κB Activation (%) 1 μg/ml): 95%; inhibition at 10 µg/mL (Homo sapiens, HepG2, 4 h, 10 μg/ml, comparison table, reporter assay, read-out: Inhibitory Ratio of NF-κB Activation (%) 10 μg/ml): 96.3% |
|  |  | O=C(Nc1cc(C(F)(F)F)cc(C(F)(F)F)c1)c1cc(I)ccc1O [Compound No. 7, N-[3,5-bis(trifluoromethyl)phenyl]-2-hydroxy-5-iodobenzamide] | 86.6% | 85.4% |  |
|  |  | O=C(Nc1cc(C(F)(F)F)cc(C(F)(F)F)c1)c1cc([N+](=O)[O-])ccc1O [Compound No. 8, N-[3,5-bis(trifluoromethyl)phenyl]-2-hydroxy-5-nitrobenzamide] | 92% | 99.2% |  |
|  |  | CC(=O)c1ccc(O)c(C(=O)Nc2cc(C(F)(F)F)cc(C(F)(F)F)c2)c1 [Compound No. 12, 5-acetyl-N-[3,5-bis(trifluoromethyl)phenyl]-2-hydroxybenzamide] | 86.3% | 99.2% |  |
| 76.8% | 96.0% | CC(O)c1ccc(O)c(C(=O)Nc2cc(C(F)(F)F)cc(C(F)(F)F)c2)c1 (stereo not drawn) [Compound No. 13] |  |  |  |
| 94.5% | 99.2% | CC(=NOCc1ccccc1)c1ccc(O)c(C(=O)Nc2cc(C(F)(F)F)cc(C(F)(F)F)c2)c1 [Compound No. 15] |  |  |  |
|  |  | N#CC(C#N)=Cc1ccc(O)c(C(=O)Nc2cc(C(F)(F)F)cc(C(F)(F)F)c2)c1 [Compound No. 16, N-[3,5-Bis(trifluoromethyl)phenyl]-5-(2,2-dicyanoethen-1-yl)-2-hydroxybenzamide] | 42.7% | 99.4% |  |
| 74.9% | 99.1% | COC(=O)C(C#N)=Cc1ccc(O)c(C(=O)Nc2cc(C(F)(F)F)cc(C(F)(F)F)c2)c1 [Compound No. 17, 3-({N-[3,5-bis(trifluoromethyl)phenyl]carbamoyl}-4-hydroxyphenyl)-2-cyanoacrylic acid methyl ester] |  |  |  |
| 59.7% | 98.5% | N#CC(=Cc1ccc(O)c(C(=O)Nc2cc(C(F)(F)F)cc(C(F)(F)F)c2)c1)C(=O)O [Compound No. 18] |  |  |  |
|  |  | C[Si](C)(C)C#Cc1ccc(O)c(C(=O)Nc2cc(C(F)(F)F)cc(C(F)(F)F)c2)c1 [Compound No. 20, N-[3,5-bis(trifluoromethyl)phenyl]-2-hydroxy-5-[(trimethylsilyl)ethynyl]benzamide] | 91.1% | 94.9% |  |
| 53.3% | 90.1% | C#Cc1ccc(O)c(C(=O)Nc2cc(C(F)(F)F)cc(C(F)(F)F)c2)c1 [Compound No. 21] |  |  |  |
| 79.5% | 97.8% | O=C(Nc1cc(C(F)(F)F)cc(C(F)(F)F)c1)c1cc(-c2cccs2)ccc1O [Compound No. 28] |  |  |  |
|  |  | Cc1nc(-c2ccc(O)c(C(=O)Nc3cc(C(F)(F)F)cc(C(F)(F)F)c3)c2)cs1 [Compound No. 30, N-[3,5-Bis(trifluoromethyl)phenyl]-2-hydroxy-5-(2-methylthiazol-4-yl)benzamide] | 82.1% | 95.3% |  |

| SMILES | Inhibitory Ratio of NF-κ B Activation(%) Drug Concentration 1 μg/mL [3] | Inhibitory Ratio of NF-κ B Activation(%) Drug Concentration 10 μg/mL [4] | inhibition at 1 µg/mL [1] | inhibition at 10 µg/mL [2] | also measured |
| --- | --- | --- | --- | --- | --- |
| CON=C(C)c1ccc(O)c(C(=O)Nc2cc(C(F)(F)F)cc(C(F)(F)F)c2)c1 [Compound No. 14] | 94.7% | 98.3% |  |  |  |
| O=C(Nc1cc(C(F)(F)F)cc(C(F)(F)F)c1)c1cc(C(F)(F)C(F)(F)F)ccc1O [Compound No. 26] | 93.3% | 95.4% |  |  |  |
